Values after ≈ are worked out from the molar mass of the structure shown.
Tests used:
[1] = system: PC-3 (prostate adenocarcinoma); assay: In vitro tumor growth inhibition (GI50, propidium iodide); format: cell-based; conditions: 96 hrs
[2] = system: 1121L (Lung); assay: In vitro cytotoxic activity, 36 tumor cell lines panel; format: cell-based; conditions: 96 hours
Method: (§1) Culture conditions and activity evaluations of Compound 1 against 36 cancer cell lines were done as described below. Results were expressed as the concentration of drug which inhibits 50% of the cell growth (IC50, calculated using the formula: [Ti/C]×100=−50).
(§2) The compound was dissolved at 10 mM in DMSO. Dilution in vehicle to concentrations of 30, 10, 3, 1 and 0.3 μM were prepared immediately before assays. Depending on the cell line's growth characteristics, 4000-10000 cells were plated in two 96-wells pates (day 0) and incubated for 16 hours. The following day, propidium iodide was added to one of the two plates. Test compound was added to the second plate, as well as vehicle control, and cells further incubated for 96 hours. The compound was tested at each concentration and in triplicates. The equivalent cell number was determined after adding propidium iodide by measuring the signal by fluorescence (Ti for test article, C for control).

[3] = system: 1138L (Uterus); assay: as above; format: cell-based; conditions: 96 hours
Method: as §1, §2

[4] = system: 1218L (Bladder); assay: as above; format: cell-based; conditions: 96 hours
Method: as §1, §2

[5] = system: 1619L (Ovarian); assay: as above; format: cell-based; conditions: 96 hours
Method: as §1, §2

[6] = system: 1752L (Pleuramesot.); assay: as above; format: cell-based; conditions: 96 hours
Method: as §1, §2

[7] = system: 1781L (Renal); assay: as above; format: cell-based; conditions: 96 hours
Method: as §1, §2

[8] = system: 22RV1 (Prostate); assay: as above; format: cell-based; conditions: Homo sapiens, 96 hours
Method: as §1, §2

[9] = system: 276L (Melanoma); assay: as above; format: cell-based; conditions: 96 hours
Method: as §1, §2

[10] = system: 289L (Lung); assay: as above; format: cell-based; conditions: 96 hours
Method: as §1, §2

[11] = system: 394NL (Melanoma); assay: as above; format: cell-based; conditions: 96 hours
Method: as §1, §2

[12] = system: 462NL (Melanoma); assay: as above; format: cell-based; conditions: 96 hours
Method: as §1, §2

[13] = system: 486L (Renal); assay: as above; format: cell-based; conditions: 96 hours
Method: as §1, §2

[14] = system: 498NL (CNS); assay: as above; format: cell-based; conditions: 96 hours
Method: as §1, §2

[15] = system: 514L (Melanoma); assay: as above; format: cell-based; conditions: 96 hours
Method: as §1, §2

[16] = system: 520L (Melanoma); assay: as above; format: cell-based; conditions: 96 hours
Method: as §1, §2

[17] = system: 629L (Lung); assay: as above; format: cell-based; conditions: 96 hours
Method: as §1, §2

[18] = system: 944L (Renal); assay: as above; format: cell-based; conditions: 96 hours
Method: as §1, §2

[19] = system: DU145 (Prostate); assay: as above; format: cell-based; conditions: Homo sapiens, DU-145, 96 hours
Method: as §1, §2

[20] = system: H460 (Lung); assay: as above; format: cell-based; conditions: Homo sapiens, NCI-H460, 96 hours
Method: as §1, §2

[21] = system: HT29 (Colon); assay: as above; format: cell-based; conditions: Homo sapiens, HT-29, 96 hours
Method: as §1, §2

[22] = system: LNCAP (Prostate); assay: as above; format: cell-based; conditions: Homo sapiens, 96 hours
Method: as §1, §2

[23] = system: MCF7 (Mammary); assay: as above; format: cell-based; conditions: Homo sapiens, 96 hours
Method: as §1, §2

[24] = system: PANC1 (Pancreas); assay: as above; format: cell-based; conditions: Homo sapiens, PANC-1, 96 hours
Method: as §1, §2

[25] = system: PC3M (Prostate); assay: as above; format: cell-based; conditions: Homo sapiens, PC-3M, 96 hours
Method: as §1, §2

[26] = system: T24 (Bladder); assay: as above; format: cell-based; conditions: 96 hours
Method: as §1, §2

[27] = Acute toxicity in CD-1 nu/nu mice; format: in vivo; conditions: CD-1 nu/nu, mouse, in vivo, 6% Tween/4.5% Glycocholate/5% EtOH formulation
Method: (§3) Toxicity and therapeutic efficacy of polycyclic aromatic compounds can be determined by standard pharmaceutical procedures in cell cultures or experimental animals. Therapeutic efficacy is determined in animal models as described above and in the examples herein. Toxicity studies are done to determine the lethal dose for 10% of tested animals (LD10). Animals are treated at the maximum tolerated dose (MTD): the highest dose not producing mortality or greater than 20% body weight loss. The effective dose (ED) is related to the MTD in a given tumor model to determine the therapeutic index of the compound.
(§4) In vivo toxicity: With CD1 mice, the maximum tolerated dose (MTD) for a single-dose via i.v. or i.p. routes in 1% SDS formulation was ≧5 mg/kg. The acute toxicity in CD-1 nu/nlu mice of Compound 1 was also determined in 6% Tween/4.5% Glycocholate/5% EtOH formulation.

[28] = system: CD-1 nu/nlu mice; assay: Acute toxicity in CD-1 nu/nu mice; format: in vivo; conditions: i.v.; 6% Tween/4.5% Glycocholate/5% EtOH formulation
Method: as §3, §4

[29] = In vivo pharmacokinetic profile (plasma levels); set-up: species or system CD-1 mice; conditions: CD-1, mouse, 25 mg/kg single dose, CD1 female mice
Method: Pharmacokinetic profile of Compound 1 was determined in CD-1 mice (FIG. 1). CD1 female mice (6 weeks of age) received a single intravenous or intraperitoneal dose of Compound 1 (25 mg/kg; 5 mL/kg) in […]/4.5% Glycocholate/5% EtOH formulation. Blood was collected into EDTA-containing tubes by cardiac puncture. Quantification of Compound 1 plasma levels was done by high performance liquid chromatographic-mass spectrometric method. Cmax values represent the maximum observed plasma concentration and AUC represents the area under the plasma concentration versus time curve (Table 6).

[30] = system: Enterococcus faecalis VRE-2 (ATCC™ 51299); assay: Antibacterial activity, MIC (NCCLS M7-A5); format: cell-based; conditions: BHI+ medium, 35° C., 16 to 20 hours
[31] = system: Escherichia coli (ATCC™ 25922); assay: Antibacterial activity (NCCLS M7-A5); format: cell-based; conditions: MH medium

Q: Which GI50 [1] does the source give for `CCC(C)c1cc2c(=O)c3ccc4c(OC)c5c(=O)c6c(O)ccc(O)c6c(=O)c5c(O)c4c3c(=O)c2c(=O)n1CC(=O)N1CC(C(=O)O)NC(=O)C1C` (centres unmarked) [Compound 1] here?
A: 11.1 µM

Q: What about the IC50 [2] of the same compound?
A: 0.63 µM

Q: What about the IC50 [3] of the same compound?
A: < 0.41 µM

Q: What about the IC50 [4] of the same compound?
A: 18.4 µM

Q: What about the IC50 [5] of the same compound?
A: 19.6 µM

Q: And the IC50 [6]?
A: 4.23 µM

Q: What about the IC50 [7] of the same compound?
A: 7.54 µM

Q: And the IC50 [8]?
A: 1.65 µM

Q: What about the IC50 [9] of the same compound?
A: 8.26 µM

Q: What about the IC50 [10] of the same compound?
A: 5.04 µM

Q: What about the IC50 [11] of the same compound?
A: 9.99 µM

Q: What about the IC50 [12] of the same compound?
A: 24.7 µM

Q: And the IC50 [13]?
A: 20.7 µM

Q: What about the IC50 [14] of the same compound?
A: 3.7 µM

Q: What about the IC50 [15] of the same compound?
A: 10.7 µM

Q: What about the IC50 [16] of the same compound?
A: 7.25 µM

Q: And the IC50 [17]?
A: 11.9 µM

Q: What about the IC50 [18] of the same compound?
A: 14.9 µM

Q: And the IC50 [19]?
A: < 0.41 µM

Q: And the IC50 [20]?
A: 6.08 µM

Q: What about the IC50 [21] of the same compound?
A: 5.77 µM

Q: And the IC50 [22]?
A: 0.72 µM

Q: And the IC50 [23]?
A: 4.37 µM

Q: And the IC50 [24]?
A: 14.4 µM

Q: What about the IC50 [25] of the same compound?
A: 0.91 µM

Q: And the IC50 [26]?
A: 5.15 µM

Q: What about the MTD ([27]; ip) of the same compound?
A: ≥ 50 mg/kg

Q: And the MTD ([27]; iv)?
A: 25 mg/kg

Q: What about the Injection site observation [28] of the same compound?
A: necrosis at the injection site was observed

Q: What about the AUC ([29]; ip) of the same compound?
A: 649 µg·h/mL

Q: What about the Cmax ([29]; ip) of the same compound?
A: 111 µg/mL

Q: What about the AUC ([29]; iv) of the same compound?
A: 1180 µg·h/mL

Q: What about the Cmax ([29]; iv) of the same compound?
A: 227 µg/mL

Q: And the MIC [30]?
A: 0.125 µg/mL (≈ 0.169 µM)

Q: What about the Antibacterial activity [31] of the same compound?
A: inactive
